{"source": "patent US20240252514A1", "about": "“NEUROACTIVE STEROID FOR THE TREATMENT OF MILD COGNITIVE IMPAIRMENT ASSOCIATED WITH PARKINSON'S DISEASE” (SAGE THERAPEUTICS, INC., priority 2021, published 2024)", "assay_type_in_all_cases": "in vivo, human", "key": {"[1]": {"tested_on": "patients suffering from Mild Cognitive Impairment due to Parkinson's Disease (PD-MCI)", "test": "Tests of Attention and Psychomotor Performance (RTI, PVT), open label study", "experimental": "(§1) The safety and tolerability of Compound 1 and its effects on cognitive, neuropsychiatric, and motor symptoms in patients suffering from Mild Cognitive Impairment due to Parkinson's Disease (PD-MCI) was evaluated in an open label study. Eligible participants with a confirmed diagnosis of idiopathic PD by 2015 Movement Disorder Society (MDS) criteria (Berardelli et al., EFNS/MDS-ES/ENS recommendations for the diagnosis of Parkinson's disease. Eur J Neurol. 2013; 20:16-34) at Screening and who met MDS Task Force Criteria for MCI in PD (excluding requirement for UK PD Brain Bank diagnostic criteria) received 3.0 mg of Compound 1 (oral dose) daily for 14 days. Participants were instructed to take the daily dose of Compound 1 in the morning within 1 hour of initiating a meal containing approximately 30 g of fat. The study protocol was as follows and is depicted in FIG. 1.\n(§2) Beginning on Day 1 and continuing through Day 14, participants self-administered 3.0 mg Compound 1 (as six 0.5-mg oral tablets), once per day in the morning within 1 hour after initiating a meal containing approximately 30 g of fat, in accordance with the guidelines provided in a nutritional information brochure. Participants continued to complete daily assessments of cognitive performance and sleep via mobile device either remotely (at home), or in the clinic at scheduled visits and tracked Compound 1 dosing and predose food intake in a participant diary.\n(§3) Eight patients (male and female) aged 50 to 75 years old with mild cognitive impairment due to Parkinson's disease received 3 mg as oral tablets of Compound 1 daily for 2-weeks.\nThe tests of Attention and Psychomotor Performance included Reaction Time (RTI), which assesses how fast the subject can respond to a stimulus (weekly measure); Psychomotor Vigilance Task (PVT), which assesses how fast can the subject respond to a stimulus (daily measure)."}, "[2]": {"tested_on": "patients suffering from Mild Cognitive Impairment due to Parkinson's Disease (PD-MCI)", "test": "Tests of Learning and Memory (PAL, PRM, Verbal Recognition Memory, Spatial Span), open label study", "experimental": "as §1, §2, §3\nThe tests of Learning and Memory included Paired Associates Learning (PAL), which assesses how well the subject remembers the location of hidden objects; Pattern Recognition Memory (PRM), which assesses how well the subject remembers a pattern; and Verbal Recognition Memory […], which assesses how well the subject stores and retrieves verbal information."}, "[3]": {"tested_on": "patients suffering from Mild Cognitive Impairment due to Parkinson's Disease (PD-MCI)", "test": "Safety and tolerability (adverse events), open label study", "conditions": "3 mg oral daily for 14 days, follow-up to Day 28", "experimental": "as §1\nAt scheduled visits during the Treatment Period, participants completed the mobile device tasks under staff supervision. At scheduled clinic visits during the Treatment Period, safety, efficacy, and PK procedures were performed. In addition to weekly clinic visits, study staff contacted participants by telephone on Day 4 to document any TEAEs and/or changes in concomitant medications.\nParticipants were contacted by telephone on Day 21 to document any AEs and/or changes in concomitant medications. Participants returned to the clinic on Day 28 (±2 days) for a follow-up visit.\nThe Primary objective of the study was to assess (1) the percentage of Participants With at Least One Treatment-Emergent Adverse Event (TEAE) (Time Frame: Up to Day 28)."}, "[4]": {"tested_on": "patients suffering from Mild Cognitive Impairment due to Parkinson's Disease (PD-MCI)", "test": "Tests of Executive Functioning (MTT, OTS, SWM, DSST, 2-Back), open label study", "experimental": "as §1, §2, §3\nThe tests of Executive Functioning included (1) Multitasking Test (MTT), which assesses how well the subject manages conflicting information; (2) One Touch Stockings of Cambridge (OTS), which assesses how well the subject plans, holds onto, and manipulates information to solve a puzzle; (3) Spatial Working Memory (SWM), which assesses how well the subject develops and uses a strategy to find hidden information; (4) Digit Symbol Substitution Task (DSST), which assesses how efficiently can the subject complete a demanding task (daily measure); and (5) Two-Back Test (NBX), which asks is the symbol the same as that shown two symbols ago."}, "[5]": {"tested_on": "patients suffering from Mild Cognitive Impairment due to Parkinson's Disease (PD-MCI)", "test": "Tests of Social Cognition (ERT, EBT), open label study", "conditions": "3 mg oral daily for 14 days, vs baseline, Clinic/Weekly", "experimental": "as §1\nBeginning on Day 1 and continuing through Day 14, participants self-administered 3.0 mg Compound 1 (as six 0.5-mg oral tablets), once per day in the morning within 1 hour after initiating a meal containing approximately 30 g of fat, in accordance with the guidelines provided in a nutritional information brochure. […]"}, "[6]": {"conditions": "3 mg oral daily for 14 days, vs baseline, Clinic/Weekly"}, "[7]": {"conditions": "PD-MCI patients, 3 mg oral daily for 14 days, vs baseline, Clinic/Weekly"}}, "note": "“Also recorded” adds a separate entry of the source.", "data": [{"compound": "C[C@H](CC[C@](C)(O)C(F)(F)F)[C@H]1CC[C@H]2[C@@H]3CC=C4C[C@@](C)(O)CC[C@]4(C)[C@H]3CC[C@]12C", "note": "[Compound 1]", "values": [{"measurement": "Trend, Attention & Psychomotor Speed: Reaction Time", "setting": "[1]; [6]", "result": "Neutral"}, {"measurement": "Trend, Attention & Psychomotor Speed: Psychomotor Vigilance", "setting": "[1]; 3 mg oral daily for 14 days, vs baseline, Mobile/Daily", "result": "Neutral"}, {"measurement": "Performance in tests of attention and psychomotor speed (overall)", "setting": "[1]; 3 mg oral daily, 14 days (FIG. 6)", "result": "neutral results; also recorded: no appreciable change"}, {"measurement": "Trend, Learning and Memory: Paired Associates", "setting": "[2]; [6]", "result": "Improvement"}, {"measurement": "Trend, Learning and Memory: Pattern recognition", "setting": "[2]; [6]", "result": "Improvement"}, {"measurement": "Trend, Learning and Memory: Spatial Span", "setting": "[2]; [6]", "result": "Neutral"}, {"measurement": "Trend, Learning and Memory: Verbal Memory", "setting": "[2]; [6]", "result": "Improvement"}, {"measurement": "Performance in the domains of learning and memory (overall)", "setting": "[2]; 3 mg oral daily, 14 days, vs baseline (FIGS. 4 and 5)", "result": "improved performance from baseline"}, {"measurement": "Serious adverse events", "setting": "[3]", "result": "no serious adverse events"}, {"measurement": "Tolerability", "setting": "[3]", "result": "generally well tolerated"}, {"measurement": "Treatment emergent adverse events related to the compound", "setting": "[3]", "result": "no treatment emergent adverse events were determined to be related to Compound 1"}, {"measurement": "Trend, Executive Functioning: 2-Back", "setting": "[4]; [7]", "result": "Improvement"}, {"measurement": "Trend, Executive Functioning: Multitasking", "setting": "[4]; [7]", "result": "Improvement"}, {"measurement": "Trend, Executive Functioning: One Touch Stockings", "setting": "[4]; [7]", "result": "Improvement"}, {"measurement": "Trend, Executive Functioning: Spatial working Memory", "setting": "[4]; [7]", "result": "Improvement"}, {"measurement": "Trend, Executive Functioning: DSST", "setting": "[4]; PD-MCI patients, 3 mg oral daily for 14 days, vs baseline, Mobile/Daily", "result": "Improvement"}, {"measurement": "Performance in the cognitive domain of executive function (five tests, overall)", "setting": "[4]; PD-MCI patients, 3 mg oral daily, during 14 days of treatment, vs baseline (FIGS. 2-3)", "result": "performance improvements from baseline; also recorded: improved performance"}, {"measurement": "DSST improvement over baseline", "setting": "[4]; PD-MCI subjects, 3 mg oral daily, Treatment Day 14 (FIG. 3)", "result": "~27", "unit": "%"}, {"measurement": "Trend, Social Cognition: Emotional Bias", "setting": "[5]", "result": "Improvement"}, {"measurement": "Trend, Social Cognition: Emotional Recognition", "setting": "[5]", "result": "Neutral"}]}]}
